Data: patent publication US9511072B2, “Methods of modulating cell proliferation and cyst formation in polycystic kidney and liver diseases” (The Medical College of Wisconsin, Inc., priority 2006, dated 2016)
Entries after “also recorded” stand apart in the source; their conditions may differ.

Legend:
[1] = test system: EGF receptor (EGFR) phosphorylation in REC11 cells; assay: Western blot of phosphorylated EGFR in REC11 cystic cells; assay type: cell-based, mouse; conditions: 10 μM
From the text: REC11 cystic cell line is a conditionally immortalized epithelial collecting tubule (CT) cell line derived from the cystic kidneys of the BPK mouse model of human ARPKD crossed to the ImmortoMouse. The BPK mouse as a human ARPKD model has been described in Nauta J. et al., Pediatr Nephrol 1993, 7:163-172 and Nauta J. et al., Pediatr Res 1995, 37:755-763. The procedures for immortalization, cell isolation, cell culture and the complete phenotypic characterization of this cell line have been described in detail in Sweeney W. E. et al., Am J Physiol C Physiol 2001, 281:C1695-705. All analysis and experiments were performed on REC11 cells grown for a minimum 6 days under non-permissive conditions to eliminate residual Large T. REC12 cell line is a conditionally immortalized epithelial collecting tubule (CT) cell line derived from the wild-type Balb/C littermates. The Balb/C is the strain of mice in which the BPK mutation arose (Nauta J. et al., Pediatr Nephrol 1993, 7:163-172 and Nauta J. et al., Pediatr Res 1995, 37:755-763).
REC11 cells (FIG. 2, lanes A and B) and control renal epithelial cells (REC12 cells: FIG. 2, lanes C and D) were grown for 10 days. Next, the cells were exposed to vehicle (lanes A and C) or 10 μM HET0016 (lanes B and D) and then harvested for assessment of the expression of phosphorylated EGFR by Western Blot analysis.

[2] = test system: 20-HETE synthesis (cytochrome P450 4A and 4F isoforms); assay: 20-HETE production by renal microsomes of BPK mice dosed with HET-0016; assay type: in vivo, mouse
Method: (§1) Microsomes were isolated from the cystic BPK and non-cystic Balb/C mouse kidneys as described by Ito O et al. (Am J Physiol Regul Integr Comp Physiol, 280:R822-30, 2001). For the BPK and Balb/C cells, protein lysates were harvested by homogenization and subsequent sonication of the cell pellets. For the 20-HETE production assay, the isolated protein (500 μg) was incubated in 0.5 mL of 100 mM potassium phosphate buffer containing 40 μM cold arachidonic acid and 2 mM NADPH. In some samples, the 20-HETE synthesis inhibitor, HET-0016, was added at a concentration of 1 μM. The reaction was incubated at 37° C. and equilibrated with 100% O2 for 30 minutes. The reaction was stopped by acidification to pH 3.5 with 1M formic acid. The lipids were extracted in the presence of 20-HETE-d6 (2 ng) using 3:1 ethyl acetate:water and dried down under nitrogen. The samples were reconstituted in 1:1 methanol:water and the production of 20-HETE was measured using a liquid chromatograph-triple quadrupole mass spectrometer (ABI 3000, Applied Biosystems, Inc., Foster City, Calif.) as described in Williams J M et al. Hypertension, 49:687-94, 2007.
To further examine the biological role of 20-HETE in the epithelial cell proliferation, post-natal day 7, 10 or 21 day old BPK mice were treated with an intraperitoneal injection of vehicle or HET-0016 (10 mg/kg/day) 2 hours prior to sacrifice at which point the kidneys were removed for measurement of 20-HETE synthesis.

Cyp4a12 = biological target: T1, Cyp4a12 (Mus musculus, UniProt Q91WL5); assay: 20-HETE production assay with lysates of Cyp4a12 over-expressing Balb/C cells; assay type: biochemical, murine; conditions: 1 μM during the 20-HETE production assay
T1 construct: Murine full-length Cyp4a10 (cDNA clone MGC:58977) and Cyp4a12 (cDNA clone MGC:25972) cDNA clones were purchased from ATCC; expressed in transfected cells; host or cells: conditionally immortalized non-cystic Balb/C (+/+) mouse renal epithelial cells transduced with the lentiviral vector pHR(+)c.Ub.CYP4A12.R(-)W(+); protein lysates
T1 sequence (Q91WL5 38-508): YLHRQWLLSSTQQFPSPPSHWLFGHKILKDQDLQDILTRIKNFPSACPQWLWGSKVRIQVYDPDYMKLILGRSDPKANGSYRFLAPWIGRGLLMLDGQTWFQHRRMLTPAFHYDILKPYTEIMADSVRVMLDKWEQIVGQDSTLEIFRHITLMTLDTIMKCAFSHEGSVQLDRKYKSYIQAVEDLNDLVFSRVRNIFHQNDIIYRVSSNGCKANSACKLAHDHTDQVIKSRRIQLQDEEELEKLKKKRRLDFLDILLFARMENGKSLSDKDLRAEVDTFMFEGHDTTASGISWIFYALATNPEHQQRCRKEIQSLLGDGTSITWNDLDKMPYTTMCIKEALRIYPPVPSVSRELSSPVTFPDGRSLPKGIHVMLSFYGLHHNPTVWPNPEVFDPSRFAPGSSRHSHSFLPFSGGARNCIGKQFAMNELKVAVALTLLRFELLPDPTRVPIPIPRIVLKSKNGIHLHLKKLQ
Method: as §1
The functional activity of the cytochrome P450 4A isoforms was determined using liquid chromatography coupled to mass spectrometry in the 20-HETE production assay (FIG. 7B). […]

PCK rats = assay: Chronic HET0016 treatment of PCK rats (KW/BW, LW/BW, morphology); assay type: in vivo, rat
Method: PCK rats, an orthologous model of human ARPKD (PKHD1), received daily IP injections of vehicle or HET0016 at 10 mg/kg/daily, starting at postnatal day 7 (PN-7). Animals were treated daily from PN-7 to PN-55 (48 doses). Kidney and liver were harvested at PN-55.

[3] = 10 mg/kg/daily IP, PN-7 to PN-55
[4] = 10 mg/kg/day IP, PN-7 to PN-55, 10 mg/kg/day

## N-hydroxy-N-(4-butyl-2-methylphenyl)-formamidine [HET0016]
[1]
  phosphorylation of EGFR: reduced the phosphorylation of EGFR
[2]; 10 mg/kg/day i.p.
  effect on other metabolites of arachidonic acid formed by the kidney: no apparent inhibition
[2]; 10 mg/kg/day i.p. 2 hours prior to sacrifice, renal microsomes
  inhibition of the formation of 20-HETE: > 95%
[2]; 10 mg/kg/day i.p. 2 hours prior to sacrifice, renal microsomes, vehicle 1.06±0.33
  production of 20-HETE: 0.04±0.02 pmoles/min/mg protein
Cyp4a12
  inhibition of 20-HETE synthesis by over-expressed Cyp4a12: > 70%
PCK rats; [3]
  BW: 93
  KW (% BW): 0.97 % BW
  LW (% BW): 4.3 % BW
PCK rats; 10 mg/kg/daily IP, vs vehicle
  decrease in KW/BW ratio: 23%
  decrease in LW/BW ratio: 25%
  decrease in total body weight: 14%
PCK rats; [4]
  kidney morphology: cysts and tubular epithelial proliferation: dramatic reduction in size and number of cysts and tubular epithelial proliferation; also recorded: dramatic reduction in cyst size and tubular epithelial proliferation
  liver morphology: biliary cysts and biliary epithelial proliferation: dramatic reduction in size and number of cysts and reduced biliary epithelial proliferation; also recorded: dramatic reduction in the size and number of biliary cysts and in the proliferation of biliary epithelial cells
